Test results from patent US20250154212A1, “METHOD OF DISRUPTING MEMORY AND LIPOPEPTIDE FOR USE IN SUCH METHOD” (The Research Foundation for The State University of New York, priority 2023, published 2025).

What was measured:
[1] = tested on: auditory-cued fear/threat memory in PKMζ-null mice; assay: Auditory-cued fear/threat conditioning, infusion into basolateral amygdala, PKMζ-null mice; format: in vivo, mouse; conditions: 6 nmol in 0.3 μL into each BLA, tested 1 day post-injection
Method: Mice were 8-10 weeks old at the time of cannulation and 9-11 weeks old at the beginning of behavioral experiments. Mice were housed with cage-mates in plastic cages and provided with food and water ad libitum. Mice were maintained on a 12 h light/dark cycle (lights on at 7:00 am) and behavioral experiments began at 9:00 am.
Mice were injected intraperitoneally (1 ml/100 g body weight) with an anesthetic cocktail containing ketamine (10 mg/ml) and xylazine (2 mg/ml). Mice were provided with analgesic treatment prior to surgery (carprofen; 5 mg/ml). Guide cannulae (Plastics One, Roanoke, VA) were implanted bilaterally in the basolateral amygdala (from bregma: AP-1.7 mm; L+/−3.0 mm; DV-4.4 mm) and secured to the skull with three jeweler's screws and dental cement. Antisedan (0.66 ml/100 g body weight of 0.5 mg drug/ml solution) was given via i.p. injection after surgery to reverse the anesthesia.
For 7 days following surgery, mice were handled by freely exploring the experimenter's palm for 2-5 min. Mice were habituated, trained, and tested in the same conditioning box (Coulbourn Habitest, Coulboum Instruments) with differing floors and walls to produce two different contexts (Context A and Context B). […] Freezing behavior (cessation of all movement except breathing) during the tone on Test 1 and Test 2 was scored by an experimenter blind to the conditions. […]

[2] = tested on: KIBRA with conventional PKCs (PKCα, PKCβI, PKCβII, PKCγ); assay: BiFC assay of KIBRA with conventional PKCs in HEK293T cells; format: cell-based, human; conditions: 10 μM
Method: KIBRA-PKMζ BiFC was performed as previously described (28), using pVen1-FLAG-KIBRA and pVen2-HA-PKMζ, in which PKMζ was cloned between EcoR1 and BamH1 sites. The constructs pVen1 and pVen2 encode the N-terminus (amino acids 1-154) and C-terminus (amino acids 155-238) of the Venus protein, respectively, and the Venus fragments were on the N-terminal of the fusion proteins. pVen2-HA-PKMζ[PKCι/λ-P291Q;F297S] was generated by site-directed mutagenesis using forward-cctggagAagcAAatceggatcccccggtCcctgtccgte and reverse-gacggacaggGaccgggggatccggatTTgctTctccagg primers and the QuickChange II XL Site-Directed Mutagenesis Kit (Agilent Technologies), following manufacturer's instructions. Additional pVen2-HA-PKC isoforms and pVen2-HA-CaMKIIα in the pVen2-HA vector were generated by cloning the N-terminus of the coding sequence of each kinase (table S1) to obtain an in-frame fusion at the C-terminus of the pVen2-HA. Human versions of KIBRA and kinases were used, and all PCR amplified sequences and constructs were verified by DNA sequencing.
HEK293T cells were cultured in Dulbecco's Modified Eagle's Medium supplemented with 10% heat-inactivated fetal bovine serum, 100 U/ml penicillin, […] streptomycin, 2 mM glutamine, and 10 mM HEPES in a T75 tissue culture flask with canted neck and ventilated cap. […]

## O=S(=O)(O)c1cc(O)c2c(S(=O)(=O)O)cc(S(=O)(=O)O)cc2c1 [ζ-stat, 1-naphthol-3,6,8-trisulphonic acid]
[1]
  auditory-cued fear/threat memory retention (% time freezing to tone): not in PKMζ-null mice
[2]
  effect on BiFC of KIBRA with conventional PKCs: has no effect
